From patent US10160747B2, “Compounds and methods for kinase modulation, and indications therefor” (Plexxikon Inc., priority 2016, dated 2018)

Columns and labels:
[1] = test system: MOLM-14 D835Y (endogenous FLT3 ITD and transfected FLT3 D835Y); experiment: MOLM-14 D835Y cell proliferation assay (CellTiter-Glo); type: cell-based; conditions: Homo sapiens, MOLM-14, 72 h; 3 d growth, GMean
How it was run: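 MOLM-14 derivatives carrying D835Y or F691L, selected under escalating AC220, were seeded at 1×10^4 cells/well and exposed to an 8-point 1:3 compound series (1 to 0.00046 μM, 0.2% DMSO final) for three days at 37° C., 5% CO2. CellTiter-Glo luminescence (ATP content) versus concentration gave IC50.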

[2] = target: T1, FLT3-ITD (Homo sapiens, UniProt P36888); experiment: FLT3-ITD recombinant enzyme kinase assay (AlphaScreen); type: biochemical; conditions: 8 pt; read-out: FLT3_ITD 8 pt: IC50
T1 sequence (P36888 1-993): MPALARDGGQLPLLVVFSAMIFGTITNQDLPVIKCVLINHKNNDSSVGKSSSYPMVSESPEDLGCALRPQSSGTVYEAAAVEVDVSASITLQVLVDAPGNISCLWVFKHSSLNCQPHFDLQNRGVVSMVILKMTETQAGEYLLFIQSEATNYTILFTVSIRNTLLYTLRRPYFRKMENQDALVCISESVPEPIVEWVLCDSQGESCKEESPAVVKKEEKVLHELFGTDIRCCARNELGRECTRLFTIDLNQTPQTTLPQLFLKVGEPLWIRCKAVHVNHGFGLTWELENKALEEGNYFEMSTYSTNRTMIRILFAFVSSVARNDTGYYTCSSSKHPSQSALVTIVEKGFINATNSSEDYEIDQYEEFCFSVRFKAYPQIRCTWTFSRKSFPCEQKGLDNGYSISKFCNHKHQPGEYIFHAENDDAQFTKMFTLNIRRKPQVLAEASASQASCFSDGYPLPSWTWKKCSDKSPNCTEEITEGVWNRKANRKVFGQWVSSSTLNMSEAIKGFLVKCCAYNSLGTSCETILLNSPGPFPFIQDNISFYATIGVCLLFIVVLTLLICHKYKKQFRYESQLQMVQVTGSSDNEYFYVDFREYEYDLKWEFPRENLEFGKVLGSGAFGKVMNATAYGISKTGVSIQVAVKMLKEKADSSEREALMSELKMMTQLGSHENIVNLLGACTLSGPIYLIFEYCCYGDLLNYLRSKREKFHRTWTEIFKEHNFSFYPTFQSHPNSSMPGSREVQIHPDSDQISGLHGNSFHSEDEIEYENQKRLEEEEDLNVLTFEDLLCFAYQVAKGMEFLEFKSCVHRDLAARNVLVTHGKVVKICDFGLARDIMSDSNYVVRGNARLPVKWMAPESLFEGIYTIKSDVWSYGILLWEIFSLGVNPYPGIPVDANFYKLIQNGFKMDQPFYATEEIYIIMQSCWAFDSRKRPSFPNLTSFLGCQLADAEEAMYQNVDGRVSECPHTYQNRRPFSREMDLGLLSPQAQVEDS
Protocol: In order to determine the effect of compounds on FLT3 catalytic activity, kinase assays using recombinant enzymes and AlphaScreen® technology have been established. The catalytic activity of c-kit activity was also measured to determine selectivity of the compounds. When the kinases are catalytically active, they phosphorylate a biotinylated peptide substrate on tyrosine residues. Using AlphaScreen® technology, the ability of the compounds to affect the catalytic activity of the kinases can be measured quantitatively. The peptide substrate is immobilized by the AlphaScreen® Streptavidin Donor beads and, upon phosphorylation by a tyrosine kinase, can bind to AlphaScreen® Anti-Phosphotyrosine (PY20) Acceptor beads. Upon excitation of these beads with laser light at 680 nm, singlet oxygen is produced. This singlet oxygen is rapidly quenched, unless the AlphaScreen® Anti-Phosphotyrosine (PY20) Acceptor beads are in close proximity, in which case a proximity signal can be measured at 580 nm. In the presence of catalytic activity, there is a very strong proximity signal. Selective kinase inhibitors affect a decrease in this proximity signal through a decrease in tyrosine phosphorylation of the peptide substrate.
The assay was performed as summarized below.
Poly (Glu4-Tyr) Peptide, biotin conjugate [Biotin-GG(EEEEY)10EE] (SEQ ID NO: 4)
Final concentration=30 nM
Adenosine Triphosphate (ATP)
Final concentration for IC50 determination=10 μM (FLT3-D835Y or FLT3-ITD) or 100 μM (c-KIT)
AlphaScreen® Phosphotyrosine (PY20) Assay Kit
Final concentration=10 μg/mL
Dilute compounds in DMSO to 20× final concentration.
Add 1 μL of compound to each well of 384 well reaction plate (Perkin Elmer #6005359).
Mix enzyme and Poly (Glu4-Tyr) Peptide substrate at 1.33× final concentration in assay buffer.
Mix ATP at 5× final concentration in assay buffer.
Add 15 μL enzyme/substrate mixture to the reaction plate.
Add 4 μL of ATP to the reaction plate.
Mix Streptavidin Donor beads at 6× final concentration in Stop/Detection buffer.
Add 5 μL Streptavidin Donor beads to the reaction plate. Centrifuge 1 minute, shake to mix, and incubate at room temperature for 20 minutes.
Mix Anti-Phosphotyrosine (PY20) Acceptor beads at 6× final concentration in Stop/Detection buffer.
Add 5 μL Anti-Phosphotyrosine (PY20) beads to the reaction plate.
Centrifuge 1 minute, shake to mix, and incubate at room temperature for 60 minutes.
Read plate on Wallac EnVision™ 2103 Multilabel Reader.

IC50 [1] [µM] | IC50 [2] [µM] | Structure (SMILES)
0.0001 to 10 | 0.0001 to 10 | N#Cc1cc(-c2cc3cc(-c4ccc(CC(=O)Nc5cncc(C(F)(F)F)c5)cc4F)cnc3[nH]2)ccn1 [Compound P-0199, 2-[4-[2-(2-cyano-4-pyridyl)-1H-pyrrolo[2,3-b]pyridin-5-yl]-3-fluoro-phenyl]-N-[5-(trifluoromethyl)-3-pyridyl]acetamide]
0.0001 to 10 | 0.0001 to 10 | COc1ncc(NC(=O)Cc2ccc(-c3cnc(Nc4cn(C)cn4)nc3)cc2)cc1C(F)(F)F [Compound P-0149, N-[6-methoxy-5-(trifluoromethyl)-3-pyridyl]-2-[4-[2-[(1-methylimidazol-4-yl)amino]pyrimidin-5-yl]phenyl]acetamide]
0.0001 to 10 | 0.0001 to 10 | Cn1cc(Nc2ncc(-c3ccc(CC(=O)Nc4cnc(F)c(C(C)(F)F)c4)c(F)c3)cn2)cn1 [Compound P-0105, N-[5-(1,1-difluoroethyl)-6-fluoro-3-pyridyl]-2-[2-fluoro-4-[2-[(1-methylpyrazol-4-yl)amino]pyrimidin-5-yl]phenyl]acetamide]
0.0001 to 10 | 0.0001 to 10 | Cc1ncc(NC(=O)Cc2ccc(-c3cnc4[nH]nc(C)c4c3)c(F)c2)cc1C(F)(F)F [Compound P-0172, 2-[3-fluoro-4-(3-methyl-1H-pyrazolo[3,4-b]pyridin-5-yl)phenyl]-N-[6-methyl-5-(trifluoromethyl)-3-pyridyl]acetamide]
0.0001 to 10 | 0.0001 to 10 | CC(C)c1cc(NC(=O)Cc2ccc(-c3cnc(Nc4cnn(C)c4)nc3)cc2F)ccn1 [Compound P-0094, 2-[2-fluoro-4-[2-[(1-methylpyrazol-4-yl)amino]pyrimidin-5-yl]phenyl]-N-(2-isopropyl-4-pyridyl)acetamide]
0.0001 to 10 | 0.0001 to 10 | Cn1cc(Nc2ncc(-c3ccc(CC(=O)Nc4cc(C(F)(F)F)ncn4)cc3)cn2)cn1 [Compound P-0135, 2-[4-[2-[(1-methylpyrazol-4-yl)amino]pyrimidin-5-yl]phenyl]-N-[6-(trifluoromethyl)pyrimidin-4-yl]acetamide]
0.0001 to 10 | 0.0001 to 10 | CCn1cc(Nc2ncc(-c3ccc(CC(=O)Nc4cncc(C(F)(F)F)c4)cc3)cn2)cn1 [Compound P-0166, 2-[4-[2-[(1-ethylpyrazol-4-yl)amino]pyrimidin-5-yl]phenyl]-N-[5-(trifluoromethyl)-3-pyridyl]acetamide]
0.0001 to 10 | 0.0001 to 10 | Cn1cc(Nc2ncc(-c3ccc(CC(=O)Nc4ccnc(C5CC5)c4)cc3)cn2)cn1 [Compound P-0097, N-(2-cyclopropyl-4-pyridyl)-2-[4-[2-[(1-methylpyrazol-4-yl)amino]pyrimidin-5-yl]phenyl]acetamide]
0.0001 to 10 | 0.0001 to 10 | COc1nn(C[C@H](C)O)cc1Nc1ncc(-c2ccc(CC(=O)Nc3cnc(C)c(C(F)(F)F)c3)cc2)cn1 [Compound P-0180, 2-[4-[2-[[1-[(2S)-2-hydroxypropyl]-3-methoxy-pyrazol-4-yl]amino]pyrimidin-5-yl]phenyl]-N-[6-methyl-5-(trifluoromethyl)-3-pyridyl]acetamide]
0.0001 to 10 | 0.0001 to 10 | Cn1cc(Nc2ncc(-c3ccc(CC(=O)Nc4cnc(Cl)c(C(F)(F)F)c4)cc3)cn2)cn1 [Compound P-0145, N-[6-chloro-5-(trifluoromethyl)-3-pyridyl]-2-[4-[2-[(1-methylpyrazol-4-yl)amino]pyrimidin-5-yl]phenyl]acetamide]
0.0001 to 10 | 0.0001 to 10 | Cc1n[nH]c2ncc(-c3ccc(CC(=O)Nc4cncc(C(F)(F)F)c4)cc3F)cc12 [Compound P-0177, 2-[3-fluoro-4-(3-methyl-1H-pyrazolo[3,4-b]pyridin-5-yl)phenyl]-N-[5-(trifluoromethyl)-3-pyridyl]acetamide]
0.0001 to 10 | 0.0001 to 10 | COCCn1cc(Nc2ncc(-c3ccc(CC(=O)Nc4cnc(C)c(C(F)(F)F)c4)cc3)cn2)cn1 [Compound P-0179, 2-[4-[2-[[1-(2-methoxyethyl)pyrazol-4-yl]amino]pyrimidin-5-yl]phenyl]-N-[6-methyl-5-(trifluoromethyl)-3-pyridyl]acetamide]
0.0001 to 10 | 0.0001 to 10 | O=C(Cc1ccc(-c2cnc3[nH]c(-c4ccnc(N5CCOCC5)c4)cc3c2)cn1)Nc1ccnc(C(F)(F)F)c1 [Compound P-0181, 2-[5-[2-(2-morpholino-4-pyridyl)-1H-pyrrolo[2,3-b]pyridin-5-yl]-2-pyridyl]-N-[2-(trifluoromethyl)-4-pyridyl]acetamide]
0.0001 to 10 | 0.0001 to 10 | Cn1cc(Nc2ncc(-c3ccc(CC(=O)Nc4ccc(C(C)(C)C#N)nc4)cc3)cn2)cn1 [Compound P-0146, N-[6-(1-cyano-1-methyl-ethyl)-3-pyridyl]-2-[4-[2-[(1-methylpyrazol-4-yl)amino]pyrimidin-5-yl]phenyl]acetamide]
0.0001 to 10 | 0.0001 to 10 | Cn1cc(Nc2ncc(-c3ccc(CC(=O)Nc4ccc(C(C)(C)C#N)nc4)c(F)c3)cn2)cn1 [Compound P-0108, N-[6-(1-cyano-1-methyl-ethyl)-3-pyridyl]-2-[2-fluoro-4-[2-[(1-methylpyrazol-4-yl)amino]pyrimidin-5-yl]phenyl]acetamide]
0.0001 to 10 | 0.0001 to 10 | N#Cc1cc(-c2cc3cc(-c4ccc(CC(=O)Nc5ccnc(C(F)(F)F)c5)nc4)cnc3[nH]2)ccn1 [Compound P-0182, 2-[5-[2-(2-cyano-4-pyridyl)-1H-pyrrolo[2,3-b]pyridin-5-yl]-2-pyridyl]-N-[2-(trifluoromethyl)-4-pyridyl]acetamide]
0.0001 to 10 | 0.0001 to 10 | Cn1cnc(Nc2ncc(-c3ccc(CC(=O)Nc4cc(C(C)(F)F)ccn4)cc3)cn2)c1 [Compound P-0169, N-[4-(1,1-difluoroethyl)-2-pyridyl]-2-[4-[2-[(1-methylimidazol-4-yl)amino]pyrimidin-5-yl]phenyl]acetamide]
0.0001 to 10 | 0.0001 to 10 | Cn1cc(Nc2ncc(-c3ccc(CC(=O)Nc4cnc(Cl)c(C(F)(F)F)c4)c(F)c3)cn2)cn1 [Compound P-0092, N-[6-chloro-5-(trifluoromethyl)-3-pyridyl]-2-[2-fluoro-4-[2-[(1-methylpyrazol-4-yl)amino]pyrimidin-5-yl]phenyl]acetamide]
0.0001 to 10 | 0.0001 to 10 | Cn1cc(Nc2ncc(-c3ccc(CC(=O)Nc4cc(C(F)(F)F)ccn4)cc3)cn2)cn1 [Compound P-0139, 2-[4-[2-[(1-methylpyrazol-4-yl)amino]pyrimidin-5-yl]phenyl]-N-[4-(trifluoromethyl)-2-pyridyl]acetamide]
